Our source for the TGI and GI50 values is PubChem BioAssay (NCI).

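Growth conditions: 96-well plates. Treatment: test compound, 48 hours, 5 concentrations. Analysis: linear interpolation between bracketing concentrations; unreached endpoints set to highest concentration. The concentration for 50% growth inhibition is given as GI50. TGI: total growth inhibition.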

One experiment has as its system DMS 114 small cell lung. Put plainly: NCI tumour cell line growth inhibition, 48 h.
For `COC(=O)[C@]1(C)CCCC2(C)C1CC[C@H]1C=C(C)[C@H]3CCC12C3` (some centres not stated), the TGI was > 100 µM.
Still for that read-out and setting: the same measure for `O=C(Nc1cc(Cl)ccc1Cl)c1cc2cccc(Cl)c2oc1=O`: > 100 µM; for `O=c1n(-c2ccccc2)c(=O)n2n1C1C=CC2C2C(C1)C2(Cl)Cl` (configuration not stated): > 100 µM.
As to `COC1C(O)=C2C(=O)O/C(C)=C/C=C/C=C/C=C\CC(c3ccccc3)NC(=O)\C=C/C=C\C=C\C=C\[C@@]2(C)[C@@H]1O` (some centres not stated), the TGI was 0.357 µM.
On the same count and under the same terms, the same measure for `CCOC(=O)C(C)(C)Oc1ccc2c(C)c(-c3ccc(Cl)cc3)c(=O)oc2c1`: > 100 µM.
Regarding `Cc1c(Cl)cccc1N1C(=O)C(Cl)=C(Cl)C1=O`, the TGI is > 100 µM.
On to `COc1ccc(NC(=O)/C(N=O)=C(/C)O)cc1`, for which the TGI was > 100 µM.
For `COc1cccc(/C=N/[N-]C(=O)c2ccncc2)c1[O-].[Cu+2].[OH3+]`, the GI50 was 71.1 µM and the TGI was > 100 µM.
On to `CCc1c(OC(C)=O)c2c(NC3OC(COC(C)=O)C(OC(C)=O)C(OC(C)=O)C3OC(C)=O)nc(OC)nc2oc1=O` (configuration not stated), for which the TGI is > 100 µM.
Regarding `O=C(NC(=O)c1cn(CCNCCO)c(=O)[nH]c1=O)OCc1ccccc1`, the TGI was > 100 µM.
For `O=[N+]([O-])c1ccc(-n2nnc(C3=NCCN3)c2-c2ccc(Cl)cc2)cc1`, the TGI was > 100 µM.
On the same count and under the same terms, the same measure for `O=C(c1ccc(Cl)cc1)c1cnc(Nc2ccccc2Cl)s1`: 66.7 µM; for `CCC1C2C=CC(CC2)N1S(=O)(=O)c1ccc(C)cc1` (configuration not stated): 58.1 µM; for `CCOc1ccc(N2C(=O)/C(=C/c3ccc(N(CCC#N)CCC#N)cc3)N=C2c2cc([N+](=O)[O-])ccc2Cl)cc1`: > 100 µM.
Still for that read-out and setting: the same measure for `COc1ccc(-c2cc(-c3ccccc3)c(C#N)c(=O)n2C2OC(CO)C(O)C(O)C2O)cc1` (configuration not stated): > 100 µM; for `CCOC(=O)C1(c2ccccc2)CCC(=O)CC1`: > 100 µM; for `O=C(N/N=C1/C(=O)N(c2ccc(Cl)cc2Cl)C(=O)C(=O)C1c1nc2ccccc2o1)c1ccccc1O` (configuration not stated): 78.5 µM.
Still for that read-out and setting: in the case of `CC(=O)O[C@H]1CCC2[C@@H]3CCC4=C(O)c5nocc5C[C@]4(C)C3CC[C@@]21C` (some centres not stated) it was > 100 µM.
As to `CCCCCCC[CH2][Sn]1([CH2]CCCCCCC)[O]C(=O)c2cccnc2[S]1`, the GI50 was > 100 µM and the TGI is > 100 µM.
Turning to `O=C1[C@@H]2C3c4ccccc4C([C@@H]2C(=O)N1c1ccccc1)S3(=O)=O`, the TGI is > 100 µM.
Same read-out and setting: the same measure for `COc1ccc(/C(=N\NC(=O)C(N)=O)C(c2ccc(OC)cc2)C2(O)C(=O)Nc3c(Cl)cccc32)cc1` (configuration not stated): > 100 µM; for `CCc1cccc(C)c1NC(=O)C(=O)Cc1nc2ccccc2o1`: > 100 µM.
With `CCOc1ccc2c(c1)[n+]([O-])c(-c1ccccc1Cl)c(N)[n+]2[O-]`, the TGI was > 100 µM.
In the case of `O=C1c2ccccc2C2(O)c3cc4ccccc4cc3OC12O` (configuration not stated), the TGI stood at 99 µM.

A further experiment concerns DMS 273 small cell lung. Put plainly: NCI tumour cell line growth inhibition, 48 h.
Take `c1ccc(SC2CCSc3ccccc3C2Sc2ccccc2)cc1` (configuration not stated): the TGI was > 100 µM.
The same measure, in the same setting: the same measure for `O=C(Nc1cc(Cl)ccc1Cl)c1cc2cccc(Cl)c2oc1=O`: > 100 µM; for `O=c1n(-c2ccccc2)c(=O)n2n1C1C=CC2C2C(C1)C2(Cl)Cl` (configuration not stated): > 100 µM.
Still for that read-out and setting: in the case of `Cc1ccc(Cn2c(C)nc3c2C(=O)c2ccccc2C3=O)cc1` it was 19 µM; in that of `CCOC(=O)C(C)(C)Oc1ccc2c(C)c(-c3ccc(Cl)cc3)c(=O)oc2c1`, > 100 µM.
On the same count and under the same terms, the same measure for `Cc1c(Cl)cccc1N1C(=O)C(Cl)=C(Cl)C1=O`: > 100 µM.
In the case of `COc1ccc(NC(=O)/C(N=O)=C(/C)O)cc1`, the TGI was > 100 µM.
Regarding `COc1cccc(/C=N/[N-]C(=O)c2ccncc2)c1[O-].[Cu+2].[OH3+]`, the GI50 is 48.2 µM and the TGI was > 100 µM.
For `CCc1c(OC(C)=O)c2c(NC3OC(COC(C)=O)C(OC(C)=O)C(OC(C)=O)C3OC(C)=O)nc(OC)nc2oc1=O` (configuration not stated), the TGI was > 100 µM.
In the case of `O=[N+]([O-])c1ccc(-n2nnc(C3=NCCN3)c2-c2ccc(Cl)cc2)cc1`, the TGI is > 100 µM.
Same read-out and setting: the same measure for `O=C(c1ccc(Cl)cc1)c1cnc(Nc2ccccc2Cl)s1`: 42.9 µM.
Take `CCC1C2C=CC(CC2)N1S(=O)(=O)c1ccc(C)cc1` (configuration not stated): the TGI is 60.2 µM.
On the same count and under the same terms, in the case of `CCOc1ccc(N2C(=O)/C(=C/c3ccc(N(CCC#N)CCC#N)cc3)N=C2c2cc([N+](=O)[O-])ccc2Cl)cc1` it was 40.8 µM; in that of `COc1ccc(-c2cc(-c3ccccc3)c(C#N)c(=O)n2C2OC(CO)C(O)C(O)C2O)cc1` (configuration not stated), > 100 µM.
Same read-out and setting: in the case of `CCOC(=O)C1(c2ccccc2)CCC(=O)CC1` it was > 100 µM.
Same read-out and setting: the same measure for `CC(=O)O[C@H]1CCC2[C@@H]3CCC4=C(O)c5nocc5C[C@]4(C)C3CC[C@@]21C` (some centres not stated): > 100 µM.
Consider `O=C(O)CSc1n[nH]c(-c2ccccc2)n1`, for which the TGI is > 100 µM.
Turning to `CCCCCCC[CH2][Sn]1([CH2]CCCCCCC)[O]C(=O)c2cccnc2[S]1`, the GI50 was > 100 µM and the TGI is > 100 µM.
As to `O=C1[C@@H]2C3c4ccccc4C([C@@H]2C(=O)N1c1ccccc1)S3(=O)=O`, the TGI is > 100 µM.
The same measure, in the same setting: the same measure for `Cc1ccc(S(=O)(=O)N/N=C/c2oc(-c3ccncc3)c(-c3ccncc3)c2[N+](=O)[O-])cc1`: > 100 µM; for `O=C(O)[C@H](NS(=O)(=O)c1ccc2ccccc2c1)c1ccccc1`: > 100 µM; for `CCOc1ccc2c(c1)[n+]([O-])c(-c1ccccc1Cl)c(N)[n+]2[O-]`: > 100 µM.
Regarding `O=C1c2ccccc2C2(O)c3cc4ccccc4cc3OC12O` (configuration not stated), the TGI is > 100 µM.
The same measure, in the same setting: in the case of `CN(C)c1c([O-])c(=[N+](C)C)c1=O` it was > 100 µM.
